Tests used:
SHV-5 = target: T1, SHV-5 (Klebsiella pneumoniae, UniProt P0A3M1); assay: β-lactamase enzyme inhibition assay, SHV-5 (cefotaxime substrate); type: biochemical
T1 construct: made in house; host or cells: E. coli BL21(DE3)
How it was run: (§1)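 Untagged enzyme from E. coli BL21(DE3), purified by Capto S then Superdex 75; 15 min 37 °C preincubation with inhibitor; KPC-2 read with imipenem at 300 nm, SHV-5 with cefotaxime at 260 nm, OXA-1 with nitrocefin 100 μM final at 486 nm; 10 min kinetic read; IC50 vs uninhibited wells.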

KPC-2 = target: T2, KPC-2 (Klebsiella pneumoniae, UniProt Q9F663); assay: β-lactamase enzyme inhibition assay, KPC-2 (imipenem substrate); type: biochemical; settings: Class A; imipenem substrate, 300 nm; read-out: KPC-2
T2 construct: made in house; host or cells: E. coli BL21(DE3)
T2 sequence (Q9F663 25-293, looked up): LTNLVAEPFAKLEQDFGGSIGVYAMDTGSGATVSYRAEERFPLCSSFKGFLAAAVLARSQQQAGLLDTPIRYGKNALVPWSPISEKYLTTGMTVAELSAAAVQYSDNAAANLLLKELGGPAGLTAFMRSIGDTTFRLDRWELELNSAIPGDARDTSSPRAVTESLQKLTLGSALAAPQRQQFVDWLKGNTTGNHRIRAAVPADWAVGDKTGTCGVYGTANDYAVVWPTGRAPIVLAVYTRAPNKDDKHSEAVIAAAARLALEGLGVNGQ
How it was run: as §1

VIM-2 = target: T3, VIM-2 (Escherichia coli, UniProt Q5U7L7); assay: β-lactamase enzyme inhibition assay, VIM-2 (nitrocefin substrate); type: biochemical; settings: Class B; nitrocefin substrate, 486 nm; read-out: VIM-2
T3 construct: made in house; host or cells: E. coli BL21(DE3)
How it was run: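 Nitrocefin hydrolysis (100 μM final, A486 read for 10 min) by purified VIM-2 after a 15-min, 37° C enzyme–inhibitor preincubation. IC50 is the concentration halving initial hydrolysis rate, derived from percent inhibition against no-inhibitor wells.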

AmpC = target: T4, AmpC (Enterobacter cloacae, UniProt P05364); assay: β-lactamase enzyme inhibition assay, p99 AmpC (nitrocefin substrate); type: biochemical
T4 construct: made in house; host or cells: E. coli BL21(DE3)
T4 sequence (P05364 21-381): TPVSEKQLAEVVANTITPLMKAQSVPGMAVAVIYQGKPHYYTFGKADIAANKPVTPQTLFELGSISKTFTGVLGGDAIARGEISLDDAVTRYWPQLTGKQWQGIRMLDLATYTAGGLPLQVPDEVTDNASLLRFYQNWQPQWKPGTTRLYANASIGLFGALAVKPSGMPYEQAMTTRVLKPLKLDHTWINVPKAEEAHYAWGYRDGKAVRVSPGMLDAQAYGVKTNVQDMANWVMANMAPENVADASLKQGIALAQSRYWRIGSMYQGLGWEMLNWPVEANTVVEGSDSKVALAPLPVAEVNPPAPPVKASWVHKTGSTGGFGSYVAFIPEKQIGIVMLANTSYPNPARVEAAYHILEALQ
How it was run: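 Untagged enzyme from E. coli BL21(DE3), purified by Capto S then Superdex 75; 15 min 37 °C preincubation with inhibitor; 10 min kinetic read; IC50 vs uninhibited wells.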

OXA-48 = OXA-48 (UniProt Q6XEC0); assay: β-lactamase enzyme inhibition assay, Class D oxacillinase; type: biochemical; settings: read-out: OXA-48
[1] = system: E. coli expressing the Class A Extended Spectrum Beta-Lactamase (ESBL) CTX-M-15; assay: Broth microdilution MIC assay with ceftazidime, E. coli CTX-M-15; type: cell-based; settings: Fixed CAZ (ceftazidime) 4 μg/mL; E. coli ESBL4 CTX-M-15
How it was run: (§2)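 CLSI broth microdilution in cation-adjusted Mueller Hinton broth measured growth of β-lactamase-expressing strains, grown 3-5 h beforehand. The β-lactam partner was held at 4 μg/ml final while test compound was titrated 2-fold from 16 to 0.125 μg/mL final. After 16-20 h at 37° C, the compound MIC was determined by eye.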

[2] = system: E. cloacae expressing the Class C P99; assay: Broth microdilution MIC assay with ceftazidime, E. cloacae P99; type: cell-based; settings: Fixed CAZ (ceftazidime) 4 μg/mL; E. cl. 144200 p99 AmpC
How it was run: as §2

[3] = system: K. pneumoniae expressing the Class A carbapenemase KPC-2; assay: Broth microdilution MIC assay with meropenem, K. pneumoniae KPC-2; type: cell-based; settings: Fixed Mero (meropenem) 4 μg/mL; K. p. 156319 KPC-3
How it was run: as §2

[4] = system: P. aeruginosa expressing the Class B carbapenemase VIM-2; assay: Broth microdilution MIC assay with meropenem, P. aeruginosa VIM-2; type: cell-based; settings: Fixed Mero (meropenem) 4 μg/mL; P. aerug. 2775 VIM-2
How it was run: as §2

[5] = system: K. pneumoniae expressing the class A carbapenemase KPC-2 and the class B carbapenemase VIM-4; assay: Broth microdilution MIC assay with meropenem, K. pneumoniae KPC-2 and VIM-4; type: cell-based; settings: Fixed Mero (meropenem) 4 μg/mL; K. p. A-1797 KPC-2 VIM-4
How it was run: as §2

[6] = system: K. pneumoniae producing the Class D carbapenemase OXA-48; assay: Broth microdilution MIC assay with meropenem, K. pneumoniae OXA-48; type: cell-based; settings: Fixed Mero (meropenem) 4 μg/mL; K. p. 11978 OXA-48
How it was run: as §2

T1 sequence (P0A3M1 22-286): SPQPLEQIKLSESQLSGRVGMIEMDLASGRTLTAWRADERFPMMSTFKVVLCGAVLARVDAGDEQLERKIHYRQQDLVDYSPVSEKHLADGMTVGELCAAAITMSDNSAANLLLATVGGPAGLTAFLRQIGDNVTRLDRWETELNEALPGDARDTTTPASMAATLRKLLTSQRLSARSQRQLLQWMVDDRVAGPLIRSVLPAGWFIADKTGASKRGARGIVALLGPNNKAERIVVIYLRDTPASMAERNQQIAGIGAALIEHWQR

| Compound | IC50 (SHV-5) [nM] | IC50 (KPC-2) [nM] | IC50 (VIM-2) [nM] | IC50 (AmpC) [nM] | IC50 (OXA-48) [nM] | MIC (μg/mL) of Exemplary Compounds in presence of fixed β-lactams: E. coli ESBL4 CTX-M-15 [1] | MIC (μg/mL) of Exemplary Compounds in presence of fixed β-lactams: E. cl. 144200 p99 AmpC [2] | MIC (μg/mL) of Exemplary Compounds in presence of fixed β-lactams: K. p. 156319 KPC-3 [3] | MIC (μg/mL) of Exemplary Compounds in presence of fixed β-lactams: P. aerug. 2775 VIM-2 [4] | MIC (μg/mL) of Exemplary Compounds in presence of fixed β-lactams: K. p. A-1797 KPC-2 VIM-4 [5] | MIC (μg/mL) of Exemplary Compounds in presence of fixed β-lactams: K. p. 11978 OXA-48 [6] |
| --- | --- | --- | --- | --- | --- | --- | --- | --- | --- | --- | --- |
| N=C(N)NCCCn1nnnc1CC(=O)N[C@H]1Cc2cccc(C(=O)O)c2OB1O [Example 53, (R)-3-(2-(1-(3-guanidinopropyl)-1H-tetrazol-5-yl)acetamido)-2-hydroxy-3,4-dihydro-2H-benzo[e][1,2]oxaborinine-8-carboxylic acid] | < 100 | < 100 | < 100 | < 100 | 1000 to 10000 | C (C represents an MIC of <1 μg/mL) | C (C represents an MIC of <1 μg/mL) | C (C represents an MIC of <1 μg/mL) | C (C represents an MIC of <1 μg/mL) | C (C represents an MIC of <1 μg/mL) | B (B represents an MIC between 1 and 16 μg/mL inclusive) |
| Cc1c(CN)nnn1CC(=O)N[C@H]1Cc2cccc(C(=O)O)c2OB1O [Example 106, (R)-3-(2-(4-(aminomethyl)-5-methyl-1H-1,2,3-triazol-1-yl)acetamido)-2-hydroxy-3,4-dihydro-2H-benzo[e][1,2]oxaborinine-8-carboxylic acid] | 100 to 1000 | < 100 | < 100 | < 100 | < 100 | C (C represents an MIC of <1 μg/mL) | C (C represents an MIC of <1 μg/mL) | C (C represents an MIC of <1 μg/mL) | C (C represents an MIC of <1 μg/mL) | C (C represents an MIC of <1 μg/mL) | B (B represents an MIC between 1 and 16 μg/mL inclusive) |
| NCCn1cc(Cn2nnc(CC(=O)N[C@H]3Cc4cccc(C(=O)O)c4OB3O)n2)nn1 [Example 124, (R)-3-(2-(2-((1-(2-aminoethyl)-1H-1,2,3-triazol-4-yl)methyl)-2H-tetrazol-5-yl)acetamido)-2-hydroxy-3,4-dihydro-2H-benzo[e][1,2]oxaborinine-8-carboxylic acid] | < 100 | < 100 | 1000 to 10000 | < 100 | 100 to 1000 | C (C represents an MIC of <1 μg/mL) | C (C represents an MIC of <1 μg/mL) | B (B represents an MIC between 1 and 16 μg/mL inclusive) | A (A represents an MIC>16 μg/mL) | B (B represents an MIC between 1 and 16 μg/mL inclusive) | B (B represents an MIC between 1 and 16 μg/mL inclusive) |
| O=C(Cn1cc(C(=O)N[C@H]2CCNC2)nn1)N[C@H]1Cc2cccc(C(=O)O)c2OB1O [Example 81, (R)-2-hydroxy-3-(2-(4-(((S)-pyrrolidin-3-yl)carbamoyl)-1H-1,2,3-triazol-1-yl)acetamido)-3,4-dihydro-2H-benzo[e][1,2]oxaborinine-8-carboxylic acid] | < 100 | < 100 | < 100 | < 100 | 100 to 1000 | C (C represents an MIC of <1 μg/mL) | C (C represents an MIC of <1 μg/mL) | C (C represents an MIC of <1 μg/mL) | C (C represents an MIC of <1 μg/mL) | C (C represents an MIC of <1 μg/mL) | C (C represents an MIC of <1 μg/mL) |
| CN(C)Cc1nnn(CC(=O)N[C@H]2Cc3cccc(C(=O)O)c3OB2O)c1CN(C)C [Example 38, (R)-3-(2-(4,5-bis((dimethylamino)methyl)-1H-1,2,3-triazol-1-yl)acetamido)-2-hydroxy-3,4-dihydro-2H-benzo[e][1,2]oxaborinine-8-carboxylic acid] | 100 to 1000 | < 100 | 100 to 1000 | < 100 | 100 to 1000 | B (B represents an MIC between 1 and 16 μg/mL inclusive) | C (C represents an MIC of <1 μg/mL) | B (B represents an MIC between 1 and 16 μg/mL inclusive) | B (B represents an MIC between 1 and 16 μg/mL inclusive) | B (B represents an MIC between 1 and 16 μg/mL inclusive) | B (B represents an MIC between 1 and 16 μg/mL inclusive) |
| NCc1nnn(CC(=O)N[C@H]2Cc3cccc(C(=O)O)c3OB2O)c1I [Example 105, (R)-3-(2-(4-(aminomethyl)-5-iodo-1H-1,2,3-triazol-1-yl)acetamido)-2-hydroxy-3,4-dihydro-2H-benzo[e][1,2]oxaborinine-8-carboxylic acid] | 100 to 1000 | < 100 | < 100 | < 100 | < 100 | C (C represents an MIC of <1 μg/mL) | C (C represents an MIC of <1 μg/mL) | C (C represents an MIC of <1 μg/mL) | C (C represents an MIC of <1 μg/mL) | C (C represents an MIC of <1 μg/mL) | C (C represents an MIC of <1 μg/mL) |
| N=C(N)NCc1nc(CC(=O)N[C@H]2Cc3cccc(C(=O)O)c3OB2O)cs1 [Example 24, (R)-3-(2-(2-(guanidinomethyl)thiazol-4-yl)acetamido)-2-hydroxy-3,4-dihydro-2H-benzo[e][1,2]oxaborinine-8-carboxylic acid] | < 100 | < 100 | 100 to 1000 | < 100 | 100 to 1000 | C (C represents an MIC of <1 μg/mL) | C (C represents an MIC of <1 μg/mL) | B (B represents an MIC between 1 and 16 μg/mL inclusive) | B (B represents an MIC between 1 and 16 μg/mL inclusive) | B (B represents an MIC between 1 and 16 μg/mL inclusive) | B (B represents an MIC between 1 and 16 μg/mL inclusive) |

From patent US11046716B2, “Beta-lactamase inhibitors” (priority 2015, dated 2021)
